Measured values reported in PMC12346198 (Cancers, 2025).
Counter-ions that a name gives are not always drawn. Like-named read-outs stand apart in the source and are kept apart here.

What was measured:
[1] = tested on: SNU475 cells; assay: Hollow fiber assay (HFA) model of AR-SV HCC; assay type: in vivo; settings: for Cell viability within hollow fibers (MTT assay): nude mice
Excerpt: The hollow fiber procedures were based upon those developed by Hollingshead et al. with technical consultation kindly provided by Drs. Joanna Burdette and Dan Lantvit (University of Illinois Chicago, Chicago, IL, USA). […] In order to utilize a PO dosing approach with the HFA, we extended the traditional HFA timeline to establish angiogenesis, as noted in the literature. […] Hollow fibers (KrosFlo Implant Membranes, M138615, Repligen, Waltham, MA, USA) were filled with 3 × 10^6 SNU475 cells/mL per length and heat-sealed into 2 cm lengths on Day −1. On Day 0, three fibers were implanted into 20-week-old male outbred homozygous athymic nude mice (Foxn1^nu/Foxn1^nu, The Jackson Laboratory, Bar Harbor, ME, USA) subcutaneously parallel to the spine. Following a 14-day waiting period to allow for angiogenesis around the fibers, treatment was initiated. […] On Day 21, mice were euthanized and hollow fibers were explanted. The MTT assay was performed according to the KrosFlo Implant Membrane protocol utilizing Thiazolyl Blue Tetrazolium Bromide (M2128, MilliporeSigma, Burlington, MA, USA).

[2] = tested on: HepG2; assay: CCK-8 cytotoxicity assay, HepG2; assay type: cell-based, human; settings: Homo sapiens, HepG2, 72 h, 72 h treatment
Method: (§1) The cytotoxicity of compounds was determined by the CCK-8 assay (Cell Counting Kit-8, CK04, Dojindo Molecular Technologies, Kumamoto, Japan). Cell lines were plated at 10,000 cells/well in 96-well plates and incubated overnight to allow for adherence (5% CO2, 37 °C). […] Cells were placed back in the incubator for 72 h treatment. CCK-8 reagent was added, and plates were further incubated 1–4 h as directed by the supplier’s instructions. Optical density was measured using a Biotek Synergy H1 plate reader at 450 nm. Primary hepatocytes were plated at 30,000 cells or 50,000 cells/well and maintained according to the technical information bulletin provided by the supplier. Upon treatment, maintenance media were supplemented with 10% FBS and fresh test compound for all subsequent media changes, as directed.

[3] = tested on: SNU423; assay: CCK-8 cytotoxicity assay, SNU423; assay type: cell-based; settings: Homo sapiens, SNU-423, 72 h treatment
Method: as §1

[4] = tested on: Primary Male Hepatocytes; assay: CCK-8 cytotoxicity assay, primary male hepatocytes; assay type: cell-based; settings: Hepatocyte, 72 h, 72 h treatment
Method: as §1

[5] = tested on: SNU475; assay: CCK-8 cytotoxicity assay, SNU475; assay type: cell-based, human; settings: 72 h treatment
Method: as §1

[6] = tested on: THLE-2; assay: CCK-8 cytotoxicity assay, THLE-2; assay type: cell-based; settings: Homo sapiens, 72 h treatment
Method: as §1

[7] = Single-dose IV and PO pharmacokinetics in mice; assay type: in vivo, male C57BL/6 mice; settings: for Oral bioavailability compared to parent compound: Figure S5D; for Expected plasma levels for up to 8 h post-dose: linearly scaled from PK data, BID 75 mg/kg niclosamide, 105.7 mg/kg valine–niclosamide, 87.3 mg/kg valine–compound #7, 62.9 mg/kg compound #7; for AUC: analyte = dosed compound; for Cmax: read-out: Cmax, Geo Mean; for Tmax: read-out: Tmax, Geo Mean; for clearance: single IV dose, 2 mg/kg or molar equivalent, read-out: Systemic clearance following an IV dose (converted)
Method: The in-life study and quantitative analysis of plasma samples using LC/MS were performed at Charles River Laboratories, Inc. (Wilmington, MA, USA).

[8] = Pharmacokinetic modeling of valine pro-drug conversion to parent; assay type: in vivo, mice; settings: for k el: C57BL/6, mouse, plasma, model estimate, read-out: Kel, elimination rate constant of valine conjugate (converted); for Kmet, rate constant of conversion to parent compound: Kmet = Fm × Kel; for Fraction of pro-drug converted to parent (Fm): two-compartment model estimate
Excerpt: A total of 36 mice with available PK data were included for non-linear mixed-effects analysis using NONMEM (version 7.5.0, ICON Development Solutions, Ellicott City, MD, USA), implementing the first-order conditional estimation with interaction (FOCE-I). R (version 4.2.0, R Foundation for Statistical Computing, Vienna, AUT, http://www.r-project.org) was used for visual diagnostics. […] The analyte (valine conjugate and parent compound) plasma concentration–time data were confirmed to have a biphasic distribution and elimination and were therefore fit separately to a linear two-compartment model with a depot for oral administration. Each model was parametrized in terms of clearance (CL), the volume of distribution of the central compartment (V1), intercompartmental clearance (Q), and the volume of the peripheral compartment (V3). Interindividual variability (IIV) for each parameter was assumed to be log-normally distributed, and residual variability (RUV) was described with a proportional error model. The PK parameter estimates from these independent models (parent compound or valine conjugate) were used as initial estimates for a combined model describing the conversion and disposition of the valine conjugate to the parent drug and associated metabolites. The model estimated the fraction of pro-drug converted to parent drug (Fm), which was used to calculate the first-order rate constant of metabolite formation (Kmet) = Fm × Kel. This rate constant was used to calculate the half-life of the conversion process and the amount of metabolite formed at complete conversion. The rate of metabolite formation was then calculated as the ratio of the amount of metabolite formed to the time required for complete conversion (~5 half-lives), as detailed in Figures S8–S11.

[9] = cited from earlier work
[10] = Two-week tolerability study; settings: daily PO for 14 days
Method: Mice were group-housed under conditions of a constant photoperiod (12 h light/12 h dark), temperature, and humidity with ad libitum access to water and standard pelleted chow. […] Control mice were treated with the vehicle (DMSO–Cremophor EL–water, 3:15:82 by volume). Treatments were administered PO by gavage once daily for 14 days. Mouse weights were measured every 2 days. At the study endpoint, mice were euthanized approximately 2–4 h after the last dose. Blood was collected by cardiac puncture immediately after CO2 euthanasia. At necropsy, carcasses were examined for grossly visible lesions, and organ weights were measured (liver, kidneys, spleen, urogenital tract, testes, heart, lungs, brain). Whole blood and serum were submitted to the Comparative Pathology and Digital Imaging Shared Resource at the Ohio State Comprehensive Cancer Center (OSUCCC, Columbus, OH, USA) for the determination of complete blood counts and serum chemistry.

[11] = BID PO one week, niclosamide 75, valine–niclosamide 106.1, valine–compound #7 87.3, compound #7 62.9 mg/kg
[12] = IV, 2 mg/kg (valine conjugates 2 mg/kg EQV)
[13] = IV, 2 mg/kg (valine conjugates 2 mg/kg EQV), non-compartmental analysis
[14] = PO, 40 mg/kg (valine conjugates 40 mg/kg EQV)
[15] = male, C57BL/6, mouse, plasma, iv, 2 mg/kg, IV, 2 mg/kg (valine conjugates 2 mg/kg EQV), non-compartmental analysis, read-out: AUCall, Geo Mean
[16] = male, C57BL/6, mouse, plasma, iv, 2 mg/kg, IV, 2 mg/kg (valine conjugates 2 mg/kg EQV)
[17] = male, C57BL/6, mouse, plasma, po, 40 mg/kg, PO, 40 mg/kg (valine conjugates 40 mg/kg EQV), non-compartmental analysis, read-out: AUCall, Geo Mean
[18] = male, C57BL/6, mouse, plasma, po, 40 mg/kg, PO, 40 mg/kg (valine conjugates 40 mg/kg EQV)
[19] = male, C57BL/6, mouse, plasma, po, 40 mg/kg, single PO dose, 40 mg/kg or molar equivalent, read-out: AUCall following an oral dose
[20] = male, C57BL/6, mouse, plasma, IV, 2 mg/kg (valine conjugates 2 mg/kg EQV)
[21] = male, C57BL/6, mouse, plasma, PO, 40 mg/kg (valine conjugates 40 mg/kg EQV)

For `CC(=O)O[C@H]1C(=O)[C@@]2(C)[C@H]([C@H](OC(=O)c3ccccc3)[C@]3(O)C[C@H](OC(=O)[C@H](O)[C@@H](NC(=O)c4ccccc4)c4ccccc4)C(C)=C1C3(C)C)[C@]1(OC(C)=O)CO[C@@H]1C[C@@H]2O` [PTX, Paclitaxel, reference compound], the “Cell viability within hollow fibers (MTT assay)” value ([1]; 25 mg/kg IP every other day for one week) was “significant decrease in cell viability”.

Work on `COc1cc2nccc(Oc3ccc(NC(=O)NC4CC4)c(Cl)c3)c2cc1C(N)=O` [Lenvatinib, lenvatinib] yielded an IC50 [2] greater than 30 µM, an IC50 [3] greater than 30 µM and an IC50 [4] greater than 30 µM. The IC50 ([5]; Homo sapiens, SNU-475, 72 h) was 13 µM and the IC50 [6] was 25.1 µM.

`CNC(=O)c1cc(Oc2ccc(NC(=O)Nc3ccc(Cl)c(C(F)(F)F)c3)c(F)c2)ccn1` [Regorafenib, regorafenib] showed an IC50 [2] of 11.9 µM, an IC50 [3] of 5.5 µM and an IC50 [4] greater than 30 µM. It also gave an IC50 [5] of 1.63 µM, an IC50 ([5]; Homo sapiens, SNU-475, 72 h) of 1.6 µM and an IC50 [6] greater than 30 µM.

In the case of `CC(C)[C@H](N)C(=O)Oc1ccc(Cl)cc1C(=O)Nc1ccc(C(F)(F)F)cc1Cl` [valine–compound #7], the “Toxicity in HFA study mice” value ([1]; 87.3 mg/kg BID PO, two mice excluded) is reported as “apparent toxicity”, the “Cell viability within hollow fibers (MTT assay)” value [1, 11] is reported as “no differences in cell viability” and the “Oral bioavailability compared to parent compound” value [7] is reported as “this was not observed”. The “HL_Lambda_z, Geo Mean” value [7, 12] was 4.20 h, the “IV: Clobs, Geo Mean” value [7, 13] was 0.01 L/h and the “HL_Lambda_z, Geo Mean” value [7, 14] was 6.46 h. The “PO: Cl_Fobs, Geo Mean” value [7, 14] was 0.05 L/h, the “Expected plasma levels for up to 8 h post-dose” value [7] was 3.7 µM and the AUC [7, 15] was 13.5 µM·h. For the same compound, the Cmax [7, 16] was 10.1 µM, the AUC [7, 17] was 62.1 µM·h and the Cmax [7, 18] was 7.71 µM. For the same compound, the AUC [7, 19] was 62.1 µM·h, the Tmax [7, 20] was 4.8 min and the Tmax [7, 21] was 75.6 min. The clearance ([7]; male, C57BL/6, mouse, plasma) was 0.167 mL/min, the k el [8] was 0.00147 s⁻¹ and the “Kmet, rate constant of conversion to parent compound” value [8] was 1.32 h⁻¹. The “Fraction of pro-drug converted to parent (Fm)” value [8] was 25%.

`CNC(=O)c1cc(Oc2ccc(NC(=O)Nc3ccc(Cl)c(C(F)(F)F)c3)cc2)ccn1` [Sorafenib, sorafenib] showed an IC50 [2] of 10.8 µM, an IC50 [3] of 6.1 µM and an IC50 [4] of 5.1 µM. For the same compound, the IC50 [5] was 4.2 µM, the IC50 ([5]; Homo sapiens, SNU-475, 72 h) was 4 µM and the IC50 [6] was greater than 30 µM.

With `CNC(=O)c1ccc(N2C(=S)N(c3ccc(C#N)c(C(F)(F)F)c3)C(=O)C2(C)C)cc1F` [Enzalutamide, enzalutamide] the IC50 [4] was greater than 30 µM.

For `O=C(Nc1ccc([N+](=O)[O-])cc1Cl)c1cc(Cl)ccc1O` [NEN, niclosamide ethanolamine salt], the “Plasma niclosamide concentration 4 h after oral administration” value ([9]; 40 mg/kg dose PO) is given as “roughly 0.72 µM” and the “Improvement of plasma niclosamide concentration over niclosamide” value ([9]; 4 h after oral administration) is given as “more than seven-fold”.

In the case of `CC(C)[C@H](N)C(=O)Oc1ccc(Cl)cc1C(=O)Nc1ccc([N+](=O)[O-])cc1Cl` [valine–niclosamide], the “Impact on body weight” value ([10]; 14.1, 56.4, 141.0 mg/kg) is reported as “no significant impact”, the “Impact on liver enzyme levels” value ([10]; ALT, AST, albumin) is reported as “no significant impact” and the “Spleen weights as a percentage of body weight” value ([10]; versus vehicle) is reported as “increase at the highest dose level”. For the same compound, the “Cell viability within hollow fibers (MTT assay)” value [1, 11] was “no differences in cell viability”, the “Oral bioavailability compared to parent compound” value [7] was “significantly higher oral bioavailability” and the “HL_Lambda_z, Geo Mean” value [7, 12] was 1.54 h. The “IV: Clobs, Geo Mean” value [7, 13] was 0.02 L/h, the “Fold improvement in Cmax over orally administered niclosamide” value ([7]; PO) was 6.8 fold and the “Fold increase in systemic exposure over orally administered niclosamide” value ([7]; PO) was 14.9 fold. The “HL_Lambda_z, Geo Mean” value [7, 14] was 4.11 h, the “PO: Cl_Fobs, Geo Mean” value [7, 14] was 0.05 L/h and the “Fold increase in plasma levels at 4 h over niclosamide” value ([7]; PO, molar equivalent of 40 mg/kg) was “more than 16 fold”. The “Expected plasma levels for up to 8 h post-dose” value [7] was roughly 3.5 µM, the AUC [7, 15] was 7.52 µM·h and the Cmax [7, 16] was 11.2 µM. The AUC [7, 17] was 48.6 µM·h, the Cmax [7, 18] was 11.2 µM and the AUC [7, 19] was 48.6 µM·h. The concentration at 4 h ([7]; male, C57BL/6, mouse, plasma, po, 40 mg/kg, read-out: Plasma level at 4 h after a molar equivalent oral dose) was 3.59 µM, the Tmax [7, 20] was 4.8 min and the Tmax [7, 21] was 40.2 min. The clearance ([7]; male, C57BL/6, mouse, plasma) was 0.333 mL/min, the k el [8] was 0.000789 s⁻¹ and the “Kmet, rate constant of conversion to parent compound” value [8] was 0.64 h⁻¹. For the same compound, the “Fraction of pro-drug converted to parent (Fm)” value [8] was 23%.
